Our source for the melting point values is a melting point compilation (Tetko et al.; mined from patent text by program, amines drawn as free bases though some values may be those of a salt).

In general, melting point refers to the temperature of the solid-liquid transition.

In turn, `O=C(Nc1nc(C(F)(F)F)co1)C1c2ccc(F)cc2Oc2cc(F)ccc21` had a melting point of 265 °C.

For `COC(=O)c1ccc(N2CCCC2=O)cc1`, the melting point lay in the range of 118 to 120 °C.

For `CC1(C)CC(O)C(C)(C)c2cc(C=O)ccc21` (stereo unspecified), the melting point was in the range of 76 to 78 °C.

In turn, `CC(=O)CC1(C)C=NC=CN1c1ccccc1` (stereo unspecified) yielded a melting point of 67 to 68 °C.

For the molecule `O=C(O)CCCOc1cccc(CCCCCCOc2ccc3c(c2C/C=C/c2ccccc2)CCCC3=O)c1CCC(=O)O`, the melting point is 102 to 104 °C.

`O=C1Nc2ccccc2CC(C(=O)Nc2ccc(Br)cc2)C1=O` (stereo unspecified) gave a melting point of 226 to 228 °C.

In turn, `COc1ccc(Cl)c(S(=O)(=O)NC(=O)c2cn3cc(C(F)(F)F)cc(Br)c3n2)c1` had a melting point of 191 to 192 °C.

In turn, `CCCCNC(=S)Nc1nc2ccc(OC(F)(F)F)cc2s1` gave a melting point of 211 °C.

For the molecule `O=C(Oc1ccccc1)N1CCC2(CC1)c1ccccc1Oc1ccccc12`, the melting point was 105 to 107 °C.

Molecule `CON1C(=O)CC12C=CC(=O)C=C2` showed a melting point of 107 to 109 °C.

Consider `COc1c(C)c(C)c(OC)c(CCCOc2ccc(CC3SC(=O)NC3=O)cc2)c1C` (stereo unspecified), for which the melting point lay in the range of 111 to 113 °C.

`Fc1ccc2[nH]c3c4c(Cl)cccc4nc-3cc2c1` had a melting point of 201 to 204 °C.

On to `N#CC(Cc1ccccn1)(c1ccccc1)c1ccccc1`, for which the melting point lay in the range of 116 to 117 °C.

Consider `Oc1ccc(-c2nn(-c3cc(F)ccc3F)c3cc(O)ccc23)c(O)c1`, for which the melting point fell in the range of 88 to 91 °C.

With `CCOC(=O)c1c(-c2ccccc2)c2c3ccccc3cnn2c1C(C)C`, the melting point lay within 141 to 142 °C.

On to `CCCC(=O)C(=CNc1ccc(O)cc1OC)C(=O)OCC`, for which the melting point lay within 140 to 142 °C.

`CCOc1ccc(C2=NN(C(=O)c3cccnc3)CC2)cc1` came in with a melting point of 124 to 125 °C.

For the molecule `CCc1ccccc1NC(Nc1ccccc1CC)Nc1ccccc1CC`, the melting point fell in the range of 76 to 78 °C.

Turning to `NC(=O)N1CCC(c2nn(-c3ccccc3)c3cc(F)ccc23)CC1`, the melting point was 149 to 151 °C.

The molecule `OC(CN1CCC(CCOC(c2ccccc2)c2ccccc2)C(O)C1)c1ccc(F)cc1` (stereo unspecified) came in with a melting point of 84 to 86 °C.

Molecule `O=C1NCCCCC1Cc1ccccc1` (stereo unspecified) came in with a melting point of 99 to 104 °C.

The molecule `CNS(=O)(=O)c1cc(Cl)sc1C(=O)O` registered a melting point of 103 to 104 °C.

As for `COC(=O)c1cccc(C2C(C#N)=C(N)Oc3c2ccc2ncccc32)c1` (stereo unspecified), the melting point lay within 203 to 206 °C.

Molecule `CCN(CC)CCNc1ncc2cc(-c3c(Cl)cccc3Cl)c(NC(=O)NC(C)(C)C)nc2n1` returned a melting point of 94.5 to 96.5 °C.

Turning to `CCS(=O)(=O)c1cc2c(O)cccc2o1`, the melting point was 145 to 147 °C.

The molecule `Cc1cccc(-c2sc(N)nc2-c2ccnc(-c3ccc(C(=O)NC4CCOCC4)cc3)c2)n1` yielded a melting point of 283 °C.

On to `CCCCC(O)CN1N=CCCC1c1ccc(Cl)c(Cl)c1` (stereo unspecified), for which the melting point lay in the range of 80 to 81 °C.

With `COc1ccc(OC(=O)N2c3cc(Cl)ccc3NC(=O)[C@@H]2C)cc1`, the melting point lay in the range of 187 to 190 °C.

Molecule `COc1ccc(-c2cc(SC(F)(F)F)[nH]c2-c2ccc(OC)cc2)cc1` showed a melting point of 114 to 115 °C.

Consider `CCc1nc(N)nc(N)c1N1CCNCC1`, for which the melting point was in the range of 204 to 207 °C.

`CCCCC(C(=O)O)c1cccc(C(=O)c2cc3ccsc3s2)c1` (stereo unspecified) returned a melting point of 131 °C.

In turn, `CC1(C)SC(=O)N(Cc2ccccc2[N+](=O)[O-])C1O` (stereo unspecified) displayed a melting point of 139 to 143 °C.

`CCOC(=O)c1cc2ccccc2n1CC1CC(=O)N(Cc2ccccc2)C1` (stereo unspecified): the melting point was 93 to 94 °C.

In the case of `O=C(O)C1=Cc2cc(Cl)cnc2NC1C(F)(F)F` (stereo unspecified), the melting point lay within 287 to 288 °C.

`CCCN(CCC)C(=O)Cc1cn(Cc2ccccc2Br)c2ccccc12` yielded a melting point of 118 to 119 °C.

Molecule `O=C1Cc2cccc(C(=O)c3ccccc3F)c2N1` yielded a melting point of 209 to 210 °C.

`CCNc1c(C#N)cnn1-c1ccc(Cl)c(Cl)c1Cl` yielded a melting point of 145 °C.

With `COc1cc(C(=O)C(C)C)cc([N+](=O)[O-])c1O`, the melting point is 85 to 87 °C.

`COC(=O)C(Cc1ccc(Cl)cc1Cl)c1c(Cl)cccc1Cl` (stereo unspecified) showed a melting point of 115 °C.

For the molecule `COc1ccc(CN2Cc3c(C(N)=O)ncn3-c3ccc(Cl)cc3C2=O)c(OC)c1`, the melting point is > 220 °C.

`C=CCC(O)(C(=O)c1ccccc1)c1ccccc1` (stereo unspecified) showed a melting point of 85 to 90 °C.

On to `BrC(Br)=Cc1ccc(OCc2ccccc2)cc1`, for which the melting point lay within 97 to 98 °C.

In turn, `N#Cc1ccc(NC(=O)NC(=O)c2c(F)cccc2F)c(Cl)c1Cl` came in with a melting point of 285 to 287 °C.

In turn, `OCC1Cc2c(c(Cl)cc3c(-c4ccccc4Cl)noc23)O1` (stereo unspecified) registered a melting point of 162 to 163 °C.

With `CN(C)C(=O)Nc1nc2ccccc2s1`, the melting point fell in the range of 214 to 216 °C.

Turning to `CCCOc1c(-c2ccccc2)nn(C)c1-c1ccccc1`, the melting point lay within 56 to 57 °C.

With `O=C(O)C[C@@]1(C[N+](=O)[O-])C[C@H]2CCC[C@H]21`, the melting point lay within 64 to 66 °C.

`O=C(O)CCCCCCCSc1ccc(O)cc1` returned a melting point of 94 to 95 °C.

`C#CCOc1ccc(-c2nc3cnncc3[nH]2)c(OC)c1` registered a melting point of 224 °C.

`Nc1ccc(N2CCN(CC(O)(Cn3cncn3)c3ccc(Cl)cc3Cl)CC2)cc1` (stereo unspecified) came in with a melting point of 60 °C.

`CON=C(C#N)C(=O)NC(=O)NC1CC1`: the melting point was 182 °C.

For `Cc1cc(NCCO)c2[nH]nc(-c3ccccc3)c2n1`, the melting point stood at 135 °C.

`CCOC(=O)c1nc2c(C)nn(CC)c2nc1OCCC(C)C` came in with a melting point of 59 to 61 °C.

In turn, `N#Cc1ncn2c(C(F)(F)F)cc(-c3cccc(Cl)c3)nc12` gave a melting point of 221 °C.

Consider `CNCC1Cc2cc(OC)cc(-c3cc(OC)ccc3OC)c2O1` (stereo unspecified), for which the melting point lay in the range of 144 to 145 °C.

In turn, `CC(C)(C)c1ccc(-c2cc(Nc3ccc4[nH]ccc4c3)nnc2-c2ccccc2)cc1` showed a melting point of 138 to 140 °C.

Turning to `CN1Cc2ccccc2C(OCC(O)Cn2ccnc2)c2c1nc1ccc(Br)cc1c2Cl` (stereo unspecified), the melting point is 175 to 177 °C.

In turn, `CSc1nc(=O)cc(C)n1C1CCCCC1` had a melting point of 184 to 186 °C.

Turning to `COC(=O)C1=C(C)N=C(OC)N(C(=O)Oc2ccc([N+](=O)[O-])cc2)C1c1ccc2nonc2c1` (stereo unspecified), the melting point was 180 to 183 °C.

For `O=C(Nc1cscc1S(=O)(=O)c1ccc(Cl)cc1)N[C@@H](Cc1ccc(NC(=O)c2c(Cl)cccc2Cl)cc1)C(=O)O`, the melting point amounted to 202 °C.

Take `Clc1ccccc1C(c1ccccc1)(c1ccccc1)n1cccn1`: the melting point turned out to be 135 °C.

The molecule `O=C1N[C@H](Cc2ccc(C(F)(F)F)cc2)[C@H](c2ccc(Cl)nc2)O1` (racemic) registered a melting point of 176 to 177 °C.

In the case of `CN1CCN(C2=Nc3ccccc3N=C(c3ccccc3)C2)CC1`, the melting point fell in the range of 155 to 157 °C.

`NC(=O)Cc1ccc2ccn(C3CCN(CCc4ccc(F)cc4F)CC3)c2c1` displayed a melting point of 157 to 158 °C.

As to `CN1C(=O)C(c2ccc(OC(F)F)cc2)(c2cccc(CCCC(F)F)c2)N=C1N` (stereo unspecified), the melting point lay within 54 to 57 °C.

`COC(=O)C=Cc1[nH]c(=O)c2c(ccc3nc(Nc4c(Cl)cccc4Cl)n(C)c32)c1C`: the melting point was > 300 °C.

On to `O=NSC1(CCOC(=O)CCC(=O)O)C2CC3CC(C2)CC1C3` (stereo unspecified), for which the melting point fell in the range of 63 to 70 °C.

On to `CCN(CC)C(=O)c1cc(-c2ccccc2)c(=O)n2c1-c1cc(Cl)ccc1CN2`, for which the melting point fell in the range of 192 to 194 °C.

Molecule `OCc1c(-c2ccccc2)nn2c1-c1ccccc1CC2` returned a melting point of 185 to 187 °C.

In turn, `CC1(C)OC(C=Cc2ccccn2)=CC1=O` showed a melting point of 87.5 to 89 °C.

`Cc1cccc2c(=O)n3c(nc12)C(=O)c1cc(F)ccc1-3` yielded a melting point of 255 to 257 °C.

`CC1(C)CN(CC(=O)c2ccccc2)c2cc([N+](=O)[O-])ccc2O1` showed a melting point of 125 to 128 °C.

On to `CC(=O)OCC(=O)Nc1cccc([N+](=O)[O-])c1C#N`, for which the melting point lay in the range of 157 to 158 °C.

As to `CCCc1sc(N)c(C(=O)c2ccc(Cl)cc2)c1C`, the melting point fell in the range of 94 to 95 °C.

With `NS(=O)(=O)c1ncc2ccccn12`, the melting point was in the range of 179 to 180 °C.

On to `CC(=O)C(C)(C)C(Cl)C=Cc1ccccc1` (stereo unspecified), for which the melting point was determined as 71 °C.

`CC(C)(C)c1cc(C(=O)c2ccco2)cc2c1OCC2(C)C` had a melting point of 103 to 104 °C.

In turn, `COc1ccc(-c2ccc(C(=O)Nc3ccc4cc(CN5CCCC5)cnc4c3)cn2)cc1` returned a melting point of 246 to 248 °C.

`CC1=C(C(=O)OCC2CCCO2)C(c2cccc(Br)c2)C(C(=O)OCC2CCCO2)=C(C)N1` (stereo unspecified) registered a melting point of 138 to 140 °C.

Turning to `COc1ccc(C2=NN(c3ccc([N+](=O)[O-])cc3)C(=O)[C@H]3CC=CC[C@@H]23)cc1OC` (relative stereo), the melting point is 179 to 182 °C.

Molecule `CN(C)c1cc2c3c(cccc3c1)C(=O)N(CCCCCC(=O)O)C2=O` registered a melting point of 111 to 114 °C.

`COc1c(C)c2c(c(O)c1C/C=C(\C)CCC(=O)N1C(=O)OC[C@@H]1Cc1ccccc1)C(=O)OC2` showed a melting point of 112 to 113 °C.

In turn, `CSc1cc(C(C)(C)C)n[nH]1` gave a melting point of 135 to 136 °C.

`CCCCC(=CC(N)C(=O)O)CP(=O)(O)O` (stereo unspecified) showed a melting point of 186 to 187 °C.

Molecule `CCOC(=O)NC(=S)OCc1ccccc1` came in with a melting point of 96 °C.

On to `Cc1cc(Oc2ncc(C(F)(F)F)cc2Cl)nn1C(=O)NCCCl`, for which the melting point is 98 to 100 °C.

As to `C=C(c1ccccc1)c1ccc(NC(=S)NC(=O)OC)c(NC(=S)NC(=O)OC)c1`, the melting point lay within 182 to 184 °C.

In the case of `Cc1cc(-c2ccc3ncc(N)nc3c2)cc(C)c1O`, the melting point amounted to 256 °C.

In turn, `O=[N+]([O-])c1cc(-n2ccnc2)ccc1Sc1cccc2cnccc12` showed a melting point of 187 to 189 °C.

For `CCOC(=O)c1nc(CCl)n(-c2ccccc2C(=O)c2ccccn2)n1`, the melting point fell in the range of 129 to 130 °C.

Take `O=[N+]([O-])c1cccc(-c2ccccc2O)c1`: the melting point lay in the range of 99.5 to 100 °C.
